Measured values published in US20030199671A1, “Binding molecules for Fc-region polypeptides” (priority 2001, published 2003).
Positions of bridges follow the written chain, without caps; N, C: chain ends. Residues, ends and D or L forms follow the SMILES beside them.

Tests used:
Type in all cases: binding
human IgG = conditions: Table 11; unfractionated IgG
Procedure, shortened: (§1)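 Unfractionated IgG in PBST (10 mM phosphate, 150 mM NaCl, 0.01% Tween 20, pH 7.2) or TBST (50 mM Tris, pH 7.5) was batch-incubated with immobilized peptide resin for 1-1.5 h at room temperature. Unbound IgG was quantitated by A280, and percent bound was taken by subtraction from control values.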

human IgG1 = target: T1, human IgG1 (Homo sapiens, UniProt P01857); conditions: for % IgG Capture - Batch Binding, Human IgG1: Table 9, immobilized peptide, 5.0 mg/ml resin load
T1 construct: all human subtypes derived from myeloma patients; purchased Calbiochem 400120; host or cells: myeloma patients
T1 sequence (P01857 1-330 isoform P01857-1): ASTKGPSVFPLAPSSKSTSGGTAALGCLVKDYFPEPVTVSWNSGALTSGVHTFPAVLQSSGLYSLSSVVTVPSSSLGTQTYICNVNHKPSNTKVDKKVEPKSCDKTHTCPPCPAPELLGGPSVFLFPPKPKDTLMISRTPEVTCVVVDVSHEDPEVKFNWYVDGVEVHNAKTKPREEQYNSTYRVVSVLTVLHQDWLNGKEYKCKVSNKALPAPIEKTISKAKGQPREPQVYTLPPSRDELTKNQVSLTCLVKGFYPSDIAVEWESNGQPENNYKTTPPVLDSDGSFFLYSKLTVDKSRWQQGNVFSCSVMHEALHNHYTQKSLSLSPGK
Procedure, shortened: (§2)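 Static binding, peptide resin + IgG, 1-1.5 h RT with shaking, PBST pH 7.2 or TBST pH 7.5. Flow-through read at A280 vs buffer blank; % bound = control minus unbound. Elution at pH 8.5 bicarbonate and/or pH 4.0 citrate, 30-60 min.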

human IgG2 = target: T2, human IgG2 (Homo sapiens, UniProt P01859); conditions: for % IgG Capture - Batch Binding, Human IgG2: Table 9, immobilized peptide, 5.0 mg/ml resin load
T2 construct: all human subtypes derived from myeloma patients; purchased Calbiochem 400122; host or cells: myeloma patients
T2 sequence (P01859 1-326 isoform P01859-1): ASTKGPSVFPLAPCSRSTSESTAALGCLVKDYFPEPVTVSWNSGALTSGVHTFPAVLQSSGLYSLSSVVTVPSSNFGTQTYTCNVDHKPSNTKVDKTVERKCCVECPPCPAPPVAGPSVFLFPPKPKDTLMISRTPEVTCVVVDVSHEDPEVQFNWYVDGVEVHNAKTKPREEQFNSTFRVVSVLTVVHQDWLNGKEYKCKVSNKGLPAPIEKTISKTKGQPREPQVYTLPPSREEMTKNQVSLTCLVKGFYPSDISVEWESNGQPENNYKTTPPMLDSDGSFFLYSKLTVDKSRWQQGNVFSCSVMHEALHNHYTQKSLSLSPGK
Procedure, shortened: (§3)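 Read-out is A280 of unbound IgG (1.4 mg/ml extinction coefficient), with percent bound derived against non-filtered or negative controls. Targets were incubated with immobilized peptides in PBST or TBST for 1-1.5 h at room temperature. Hydrolyzed Sepharose and immobilized Protein A serve as negative and positive controls.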

mouse IgG = conditions: Table 11; unfractionated IgG
Procedure, shortened: as §1

bovine IgG = conditions: Table 11; unfractionated IgG
Procedure, shortened: as §1

goat IgG = conditions: Table 11; unfractionated IgG
Procedure, shortened: as §1

IgG4 = IgG4 (Homo sapiens, UniProt P01861); design: all human subtypes derived from myeloma patients; purchased Calbiochem 400126; host or cells: myeloma patients; conditions: for % IgG Capture - Batch Binding, Human IgG4: Table 9, immobilized peptide, 5.0 mg/ml resin load
Sequence of IgG4 (P01861 1-327 isoform P01861-1): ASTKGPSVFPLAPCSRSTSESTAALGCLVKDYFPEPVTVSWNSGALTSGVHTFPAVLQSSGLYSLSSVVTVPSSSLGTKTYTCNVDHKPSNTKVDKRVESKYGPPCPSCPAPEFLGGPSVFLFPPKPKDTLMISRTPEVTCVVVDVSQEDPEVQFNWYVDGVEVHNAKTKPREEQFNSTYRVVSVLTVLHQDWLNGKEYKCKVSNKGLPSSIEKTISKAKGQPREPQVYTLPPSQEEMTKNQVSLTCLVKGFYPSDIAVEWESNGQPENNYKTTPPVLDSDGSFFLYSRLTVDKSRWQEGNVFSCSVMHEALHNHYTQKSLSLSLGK
Procedure, shortened: as §3

IgG3 = IgG3 (Homo sapiens, UniProt P01860); design: all human subtypes derived from myeloma patients; purchased Calbiochem 400124; host or cells: myeloma patients; conditions: for % IgG Capture - Batch Binding, Human IgG3: Table 9, immobilized peptide, 5.0 mg/ml resin load
Sequence of IgG3 (P01860 1-377 isoform P01860-1): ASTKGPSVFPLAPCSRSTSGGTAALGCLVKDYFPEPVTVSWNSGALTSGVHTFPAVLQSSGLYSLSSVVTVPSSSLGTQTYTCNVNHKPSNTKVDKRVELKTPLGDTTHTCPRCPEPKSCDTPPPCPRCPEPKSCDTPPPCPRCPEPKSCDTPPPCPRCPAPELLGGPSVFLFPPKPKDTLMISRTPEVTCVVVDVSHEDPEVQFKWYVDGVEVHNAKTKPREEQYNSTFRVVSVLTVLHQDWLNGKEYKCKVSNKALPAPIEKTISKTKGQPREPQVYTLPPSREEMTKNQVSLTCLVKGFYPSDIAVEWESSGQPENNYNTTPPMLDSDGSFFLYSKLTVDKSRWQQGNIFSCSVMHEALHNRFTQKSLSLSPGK
Procedure, shortened: as §2

[1] = Table 10, elution 0.1 M sodium bicarbonate buffer, pH 8.5
[2] = Table 10, elution 0.1 M sodium citrate buffer, pH 4.0

% IgG Capture - Batch Binding, Human IgG (human IgG) | % IgG Capture - Batch Binding, Human IgG1 (human IgG1) | Human IgG1 bdg % (% of Total Load) (human IgG1; Table 10, batch binding) | Human IgG1 elu pH 8.5 (% of Total Load) (human IgG1; [1]) | Human IgG1 elu pH 4.0 (% of Total Load) (human IgG1; [2]) | % IgG Capture - Batch Binding, Human IgG2 (human IgG2) | Human IgG2 bdg % (% of Total Load) (human IgG2; Table 10, batch binding) | Human IgG2 elu pH 8.5 (% of Total Load) (human IgG2; [1]) | Human IgG2 elu pH 4.0 (% of Total Load) (human IgG2; [2]) | % IgG Capture - Batch Binding, Mouse IgG (mouse IgG) | % IgG Capture - Batch Binding, Bovine IgG (bovine IgG) | % IgG Capture - Batch Binding, Goat IgG (goat IgG) | % IgG Capture - Batch Binding, Human IgG4 (IgG4) | Human IgG4 bdg % (% of Total Load) (IgG4; Table 10, batch binding) | Human IgG4 elu pH 8.5 (% of Total Load) (IgG4; [1]) | % IgG Capture - Batch Binding, Human IgG3 (IgG3) | Human IgG3 bdg % (% of Total Load) (IgG3; Table 10, batch binding) | Human IgG3 elu pH 8.5 (% of Total Load) (IgG3; [1]) | Human IgG3 elu pH 4.0 (% of Total Load) (IgG3; [2]) | Compound
20% | 34% | 37% | 19% | 30% | 24% | 37% | 8% | 10% | 1% | 0% | 0% | 6% | 14% | 4% | 35% | 44% | 8% | 5% | CC(=O)NCC(=O)N[C@@H](CC(=O)O)C(=O)N[C@@H](CC(=O)O)C(=O)N[C@@H](CC(=O)O)C(=O)N[C@@H](Cc1c[nH]cn1)C(=O)N[C@H]1CSSC[C@@H](C(=O)N2CCC[C@H]2C(=O)N[C@@H](Cc2c[nH]cn2)C(=O)NCC(=O)N[C@@H](CCC(=O)O)C(=O)N2CCC[C@H]2C(=O)NCC(=O)N2CCC[C@H]2C(=O)N[C@@H](CCC(=O)O)C(=O)NCC(=O)NCC(=O)NCC(=O)N[C@@H](CCCCN)C(N)=O)NC(=O)[C@H](CCC(=O)O)NC(=O)[C@H](CO)NC(=O)[C@H](CC(N)=O)NC(=O)[C@H](Cc2ccccc2)NC(=O)[C@H](Cc2c[nH]c3ccccc23)NC(=O)[C@H](CCC(=O)O)NC(=O)[C@H](CCCNC(=N)N)NC(=O)[C@H](Cc2ccccc2)NC(=O)[C@H](Cc2c[nH]c3ccccc23)NC(=O)[C@H](Cc2ccc(O)cc2)NC1=O [DX252] (Ac-GDDDHCYWFREWFNSECPHGEPGPEGGGK-NH2; disulfide 6-17 (inferred))
4% | 4% | – | – | – | 11% | – | – | – | 0% | 0% | 0% | 3% | – | – | 26% | – | – | – | CC(=O)N[C@@H](C)C(=O)NCC(=O)N1CCC[C@H]1C(=O)N[C@@H](Cc1c[nH]cn1)C(=O)N[C@@H](CC(N)=O)C(=O)N[C@H]1CSSC[C@@H](C(=O)N[C@@H](CCCCN)C(=O)N[C@@H](Cc2c[nH]c3ccccc23)C(=O)N[C@@H](Cc2ccccc2)C(=O)N2CCC[C@H]2C(=O)NCC(=O)N2CCC[C@H]2C(=O)N[C@@H](CCC(=O)O)C(=O)NCC(=O)NCC(=O)NCC(=O)N[C@@H](CCCCN)C(N)=O)NC(=O)[C@H](Cc2ccc(O)cc2)NC(=O)[C@H](Cc2c[nH]c3ccccc23)NC(=O)[C@H](Cc2ccc(O)cc2)NC(=O)[C@H](Cc2c[nH]cn2)NC(=O)[C@H](CC(=O)O)NC(=O)[C@H](CC(=O)O)NC1=O [DX389] (Ac-AGPHNCDDHYWYCKWFPGPEGGGK-NH2; disulfide 6-13 (inferred))
